Reference: PMC9597602, “Metal Complexes as Antifungals? From a Crowd-Sourced Compound Library to the First In Vivo Experiments” (JACS Au, 2022)
Where two headings read alike, the source gives them in different places.

Tests used:
[1] = tested on: Acinetobacter baumannii ATCC 19606 type strain; assay: CO-ADD antibacterial MIC assay; format: cell-based; details: initial CO-ADD dose-response screening; ≥80% growth inhibition
Summary of the method: (§1)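 Strains grown overnight in cation-adjusted Mueller Hinton broth at 37 °C, diluted 40-fold and regrown 1.5–3 h to mid-log, then seeded at 5 × 10^5 CFU/mL with compound. After 18 h static incubation at 37 °C, OD600 was read; MIC is the lowest concentration giving ≥80% growth inhibition.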

[2] = tested on: Escherichia coli ATCC 25922 FDA control strain; assay: CO-ADD antibacterial MIC assay; format: cell-based; details: initial CO-ADD dose-response screening; ≥80% growth inhibition
Summary of the method: as §1

[3] = tested on: Pseudomonas aeruginosa ATCC 27853 QC control strain; assay: CO-ADD antibacterial MIC assay; format: cell-based; details: initial CO-ADD dose-response screening; ≥80% growth inhibition
Summary of the method: as §1

[4] = tested on: methicillin-resistant Staphylococcus aureus ATCC 43300; assay: CO-ADD antibacterial MIC assay; format: cell-based; details: initial CO-ADD dose-response screening; ≥80% growth inhibition
Summary of the method: as §1

[5] = tested on: HEK-293 human embryonic kidney cells ATCC CRL-1573
Method: The cells were incubated together with the compounds for 20 h at 37 °C in 5% CO2. […] Tamoxifen (Sigma T5648) was used as internal control on each plate.

human red blood cells = format: cell-based
Summary of the method: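 Washed human erythrocytes at 0.5 × 10^8 cells/mL incubated with compound, then centrifuged. Haemolysis read as supernatant OD405, normalised to untreated cells (0%) and 1% Triton X-100 (100%), with melittin as internal plate control.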

[6] = tested on: Candida glabrata ATCC 90030 NCCLS 84; assay: Antifungal MIC assay, extended panel; format: cell-based; details: extended panel, second batch; ≥80 or ≥50% inhibition
Summary of the method: (§2)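 Read-out was the lowest compound concentration producing ≥80% growth inhibition, scored per CLSI M27. Yeast cells, precultured on YPD agar, were tested in YNB medium at a final 2.5 × 10^3 CFU/mL over 36 h at 35 °C.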

[7] = tested on: Candida tropicalis ATCC 750; assay: Antifungal MIC assay, extended panel; format: cell-based; details: extended panel, second batch; ≥80 or ≥50% inhibition
Summary of the method: as §2

[8] = tested on: Cryptococcus deuterogattii ATCC 32609 VGII; assay: Antifungal MIC assay, extended panel; format: cell-based; details: extended panel, second batch; ≥80 or ≥50% inhibition
[9] = tested on: Cryptococcus deuterogattii CBS7750 VGII; Serotype B; assay: Antifungal MIC assay, extended panel; format: cell-based; details: extended panel, second batch; ≥80 or ≥50% inhibition
Summary of the method: as §2

G. mellonella larvae = assay: Galleria mellonella in vivo toxicity assay; details: 10 μL of the highest concentration injected, monitored 6 days
Method: Based on criteria of overall antifungal activity, cytotoxicity, and hemolysis as well as compound availability, we selected compounds Co1, Ag2, Eu1, Ir1, Pt1, Pt2, Pt4, Pt5, Au1, Au2, and Au4 to conduct a preliminary in vivo toxicity assay. […] The compounds were dissolved in DMSO and diluted to the highest possible final concentration (Table 3). The larvae were then monitored for 6 days for survival and health using the G. mellonella Health Index Scoring System.[111] […] For the other compounds, no detrimental effects could be observed in the larvae over the monitoring period. […] Nevertheless, factors such as the metabolism, excretion, and/or accumulation of the various metal complexes and their metabolites will still need to be studied more rigorously in rodent models if they are to be advanced into the preclinical pipeline.
The toxicity of compounds was tested in vivo using the G. mellonella model using our previously described methods,[61] Briefly, G. mellonella larvae were reared in a controlled environmental room at Macquarie University, Sydney, Australia, at 30 °C and 65% humidity with a 12-h light/dark cycle. Larvae (200–250 mg) were individually injected with 10 μL of chemical into the last right pro-leg using a 100 μL syringe (Hamilton Ltd.). Each compound was dissolved in DMSO at the maximum concentration given in Table 3 and also diluted in water to final concentrations of 100, 10, and 1 μM. We injected five larvae in triplicate for each of the four dilutions for each compound. Larvae injected with different dilutions of DMSO (10^–1, 10^–2, and 10^–3) were included as negative controls. Following injection, the larvae were incubated at 30 °C and monitored every 24 h for 6 days. Larval performance was assessed according to the G. mellonella Health Index Scoring System.[111] The experiments were repeated over three separate days for biological triplicates.

[10] = read-out: HEK293 CC50, ranges obtained upon retesting, new batch
[11] = initial CO-ADD screening, 1 h, 10% hemolysis
[12] = ranges obtained upon retesting, new batch
[13] = read-out: HEK CC50, initial CO-ADD screening, 20 h

| Structure (SMILES) | MIC Ab [1] | MIC Ec [2] | MIC Pa [3] | MIC MRSA (Sa) [4] | HEK CC50 ([5]; initial CO-ADD screening, 20 h) [µg/mL] | CC50 [5, 10] [µM] | RBC HC10 (human red blood cells; [11]) | RBC HC10 (human red blood cells; [12]) [µM] | MIC [6] [µM] | MIC Candida tropicalis ATCC 750 [7] [µM] | MIC Cryptococcus deuterogattii ATCC 32609 [8] [µM] | MIC [9] [µM] | MIC Candida glabrata ATCC 90030 [6] [µM] | MIC Cryptococcus deuterogattii CBS7750 [9] [µM] | toxicity (G. mellonella larvae) | MIC [7] [µM] | CC50 [5, 13] [µM] | cytotoxicity: none up to stated concentration ([5]; retest) [µM] | hemolysis: none up to stated concentration (human red blood cells; retest) [µM] | MIC [8] [µM] |
| --- | --- | --- | --- | --- | --- | --- | --- | --- | --- | --- | --- | --- | --- | --- | --- | --- | --- | --- | --- | --- |
| COc1ccc(/C=C/C2=NN(c3ccc(C(=O)[O][Ag])cc3)C(c3ccc(OC)c(OC)c3)C2)cc1OC.COc1ccc(/C=C/C2=NN(c3ccc(C(=O)[O][Ag])cc3)C(c3ccc(OC)c(OC)c3)C2)cc1OC (racemic) [Ag1, (Ε)-1-(4-Carboxyphenyl)-5-(3,4-dimethoxyphenyl)-3-(3,4-dimethoxystyryl)-2-pyrazoline silver(I) complex] | >32 µg/mL | >32 µg/mL | >32 µg/mL | >32 µg/mL | >32 | 3 to 4 | >32 µg/mL | 13 to 154 | ≤0.006 | ≤0.006 to 0.012 | 0.006 to 0.024 | 0.006 |  |  |  |  |  |  |  |  |
| O=C([O][Ag])c1ccc(N2N=C(/C=C/C=C/c3ccccc3)CC2/C=C/c2ccccc2)cc1.O=C([O][Ag])c1ccc(N2N=C(/C=C/C=C/c3ccccc3)CC2/C=C/c2ccccc2)cc1 (racemic) [Ag2, 1-(4-Carboxyphenyl)-3-{(1E,3E)-4-phenylbuta-1,3-dien-1-yl}-5-{(E)-styryl}-2-pyrazoline silver(I) complex] | >32 µg/mL | >32 µg/mL | >32 µg/mL | >32 µg/mL | >32 | 6 to 7 | >32 µg/mL | > 200 |  | ≤0.006 to 0.049 | 0.006 to 0.098 |  | 0.006 to 0.195 | 0.006 to 0.098 | nontoxic |  |  |  |  |  |
| CC(=NN=C(N)[S-])C(C)=NN=C(N)[S-].O=[N+]([O-])[O-].[Co+3].c1c[nH]cn1.c1c[nH]cn1 [Co1] | >32 µg/mL | >32 µg/mL | >32 µg/mL | >32 µg/mL | >32 | > 100 | >32 µg/mL | > 100 | 100 |  | 0.78 to 1.56 | 1.56 |  |  | nontoxic | 0.39 |  |  |  |  |
| Cc1ccc2ccc3ccc(C)nc3c2n1.Cc1ccc2ccc3ccc(C)nc3c2n1.O=C([O][Eu]([O]C(=O)c1ccccc1F)[O]C(=O)c1ccccc1F)c1ccccc1F [Eu1] | >20 µM | >20 µM | >20 µM | >20 µM |  | > 200 | >20 µM | > 200 |  | ≤0.006 to 0.049 |  |  | 0.024 to 0.098 | 0.024 to 0.098 | nontoxic |  | > 20 | > 200 | > 200 | 0.024 |
| C1=CCCC=CCC1.[Cl][Pt][Cl] [Pt1] | >20 µM | >20 µM | >20 µM | 1.25 µM |  | > 100 | >20 µM | > 100 | 25 |  | 3.125 to 6.25 |  |  | 1.56 to 3.13 | nontoxic | 25 | > 20 |  |  |  |
| C1=CCCC=CCC1.[I][Pt][I] [Pt2] | >20 µM | >20 µM | >20 µM | 0.625 µM |  | > 100 | >20 µM | > 100 | 50 |  | 6.25 to 12.5 |  |  | ≤0.78 to 3.13 | nontoxic | 50 | > 20 |  |  |  |
| CC(C)C([O][Pt][Cl])C1=CCCC=CCC1 (centres unmarked) [Pt4] | >20 µM | >20 µM | >20 µM | >20 µM |  | > 100 | >20 µM | > 100 |  | 12.5 to 25 | 3.12 to 6.25 |  | 12.5 to 25 | ≤0.78 to 1.56 | nontoxic |  | > 20 |  |  |  |
